{"source": "paper PMC9307952", "about": "“Lipoate protein ligase B primarily recognizes the C8-phosphopantetheine arm of its donor substrate and weakly binds the acyl carrier protein” (The Journal of Biological Chemistry, 2022)", "key": {"E. coli LipB (EcLipB) [1]": {"target": "T1, E. coli LipB (EcLipB) (Escherichia coli, UniProt P60720, K135A/C169A)", "details": "15N-labelled inactive double mutant, C8-CoA up to 1:2 molar ratio"}, "E. coli LipB (EcLipB) [2]": {"target": "T1, E. coli LipB (EcLipB)", "details": "CoA:LipB 10:1, 50 mM Tris, 200 mM NaCl, pH 7.8, 283 K"}, "E. coli LipB (EcLipB) [3]": {"target": "E. coli LipB (EcLipB) (Escherichia coli, UniProt P60720, R71A)", "details": "CoA:LipB 10:1, 50 mM Tris, 200 mM NaCl, pH 7.8, 283 K"}, "E. coli LipB (EcLipB) [4]": {"target": "E. coli LipB (EcLipB) (Escherichia coli, UniProt P60720, G72A/G73A)", "details": "CoA:LipB 10:1 (STD, 283 K) or 8:1 (31P, 298 K), 50 mM Tris, 200 mM NaCl, pH 7.8"}, "E. coli LipB (EcLipB) [5]": {"target": "E. coli LipB (EcLipB) (Escherichia coli, UniProt P60720, C169A)", "details": "CoA:LipB 8:1, 50 mM Tris, 200 mM NaCl, pH 7.8, 298 K"}}, "data": [{"smiles": "CCCCCCCC(=O)SCCNC(=O)CCNC(=O)[C@H](O)C(C)(C)COP(=O)(O)OP(=O)(O)OC[C@H]1O[C@@H](n2cnc3c(N)ncnc32)[C@H](O)[C@@H]1OP(=O)(O)O", "note": "[C8-CoA]", "values": [{"measurement": "15N TROSY-HSQC NMR titration", "setting": "E. coli LipB (EcLipB) [1]", "value": "The pattern of amide perturbations though confirmed that E. coli LipB binds C8-CoA"}]}, {"smiles": "CC(C)(COP(=O)(O)OP(=O)(O)OC[C@H]1O[C@@H](n2cnc3c(N)ncnc32)[C@H](O)[C@@H]1OP(=O)(O)O)[C@@H](O)C(=O)NCCC(=O)NCCS", "note": "[CoA]", "values": [{"measurement": "1H STD NMR", "setting": "E. coli LipB (EcLipB) [2]", "value": "STD spectra for CoA in the presence of WT LipB, LipBK135A/C169A (catalytically inactive double mutant)"}, {"measurement": "1H STD NMR", "setting": "E. coli LipB (EcLipB) [3]", "value": "visible in both the spectra, suggesting binding of CoA with the mutants"}, {"measurement": "1H STD NMR; 31P NMR", "setting": "E. coli LipB (EcLipB) [4]", "value": "visible in both the spectra, suggesting binding of CoA with the mutants"}, {"measurement": "31P NMR", "setting": "E. coli LipB (EcLipB) [5]", "value": "upfield change in chemical shift upon addition of WT LipB"}]}]}
